Data taken from patent publication US11058688B2, “Imidazopiperazine inhibitors of transcription activating proteins” (Board of Regents, The University of Texas System, priority 2018, dated 2021).

Experiments:
[1] = target: GST-CBP(1081-1197) bromodomain (Homo sapiens (Human), UniProt Q92793); assay: CBP AlphaScreen Assay; settings: binding to biotin-H4(1-21) Ac-K5/8/12/16 peptide
Summary of the method: (§1)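 IC50 values derived by variable-slope dose-response fit between negative and DMSO control signals. AlphaScreen signal reports bromodomain association with an H4(1-21) peptide acetylated at K5, K8, K12 and K16.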

[2] = target: BRD4(49-170) bromodomain (Homo sapiens (Human), UniProt O60885); assay: BRD4 AlphaScreen Assay; settings: binding to biotin-H4(1-21) Ac-K5/8/12/16 peptide
Summary of the method: as §1

GST-CBP(1081-1197) bromodomain, sequence (Q92793 1081-1197): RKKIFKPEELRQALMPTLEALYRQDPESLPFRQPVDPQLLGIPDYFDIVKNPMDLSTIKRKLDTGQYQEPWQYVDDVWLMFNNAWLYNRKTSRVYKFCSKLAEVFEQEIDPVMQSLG

IC50 [1] | IC50 [2] | SMILES
5 nM | > 10000 nM | CNC(=O)N1CCn2c(C3CC3)nc(N3CCCc4cc(-c5cnn(C)c5)c(C(F)F)cc43)c2C1 [Example 3, 3-cyclopropyl-1-(7-(difluoromethyl)-6-(1-methyl-1H-pyrazol-4-yl)-3,4-dihydroquinolin-1(2H)-yl)-N-methyl-5,6-dihydroimidazo[1,5-a]pyrazine-7(8H)-carboxamide]
181 nM | > 25000 nM | CC(=O)N1CCn2c(C3CC3)nc(-c3cnc4c(c3)c(-c3cnn(C)c3)nn4C)c2C1 [Example 26, 1-(3-cyclopropyl-1-(1-methyl-3-(1-methyl-1H-pyrazol-4-yl)-1H-pyrazolo[3,4-b]pyridin-5-yl)-5,6-dihydroimidazo[1,5-a]pyrazin-7(8H)-yl)ethan-1-one]
1380 nM | > 10000 nM | CC(=O)N1CCn2c(C3CN(C)C3)nc(-c3ccc4c(c3)c(-c3cnn(C)c3)nn4C)c2C1 [Example 13, 1-(1-(1-Methyl-3-(1-methyl-1H-pyrazol-4-yl)-1H-indazol-5-yl)-3-(1-methylazetidin-3-yl)-5,6-dihydroimidazo[1,5-a]pyrazin-7(8H)-yl)ethanone]
33 nM | 18600 nM | CC(=O)N1CCn2c(C3CC3)nc(-c3cc4c(-c5cnn(C)c5)nn(C)c4cc3F)c2C1 [Example 28, 1-(3-Cyclopropyl-1-(6-fluoro-1-methyl-3-(1-methyl-1H-pyrazol-4-yl)-1H-indazol-5-yl)-5,6-dihydroimidazo[1,5-a]pyrazin-7(8H)-yl)ethan-1-one]
16 nM | > 25000 nM | CNC(=O)N1CCn2c(C3CCOCC3)nc(-c3cccc4cc(C5CCOCC5)ncc34)c2C1 [Example 68, N-methyl-3-(tetrahydro-2H-pyran-4-yl)-1-(3-(tetrahydro-2H-pyran-4-yl)isoquinolin-8-yl)-5,6-dihydroimidazo[1,5-a]pyrazine-7(8H)-carboxamide]
57 nM | 15900 nM | CC(=O)N1CCn2c(C3CC3)nc(-c3ccc4c(c(-c5cnn(C)c5)nn4C)c3F)c2C1 [Example 25, 1-(3-cyclopropyl-1-(4-fluoro-1-methyl-3-(1-methyl-1H-pyrazol-4-yl)-1H-indazol-5-yl)-5,6-dihydroimidazo[1,5-a]pyrazin-7(8H)-yl)ethan-1-one]
576 nM | > 25000 nM | CC(=O)N1CCn2c(C3CC3)nc(N3CCCc4cc(-c5cnn(CCO)c5)ccc43)c2C1 [Example 121, 1-(3-cyclopropyl-1-(6-(1-(2-hydroxyethyl)-1H-pyrazol-4-yl)-3,4-dihydroquinolin-1(2H)-yl)-5,6-dihydroimidazo[1,5-a]pyrazin-7(8H)-yl)ethan-1-one]
324 nM | > 25000 nM | CC(=O)N1CCn2c(C3CC3)nc(-c3ccnc4c3cc(-c3cnn(C)c3)n4C)c2C1 [Example 29, 1-(3-Cyclopropyl-1-(1-methyl-2-(1-methyl-1H-pyrazol-4-yl)-1H-pyrrolo[2,3-b]pyridin-4-yl)-5,6-dihydroimidazo[1,5-a]pyrazin-7(8H)-yl)ethan-1-one]
5 nM | > 25000 nM | CNC(=O)N1CCn2c(C3CC3)nc(-c3cccc4nc(-c5cnn(C)c5)c(C#N)cc34)c2C1 [Example 19, 1-(3-Cyano-2-(1-methyl-1H-pyrazol-4-yl)quinolin-5-yl)-3-cyclopropyl-N-methyl-5,6-dihydroimidazo[1,5-a]pyrazine-7(8H)-carboxamide]
33 nM | 14800 nM | CNC(=O)N1CCn2c(C3CC3)nc(-c3csc4cc(-c5cnn(C)c5)ncc34)c2C1 [Example 39, 3-Cyclopropyl-N-methyl-1-(6-(1-methyl-1H-pyrazol-4-yl)thieno[3,2-c]pyridin-3-yl)-5,6-dihydroimidazo[1,5-a]pyrazine-7(8H)-carboxamide]
